Read-outs that look alike come from different tables or passages of the source.

Common to all, as to type: cell-based
The subject of one assay is RSV A2. Description: RSV NHBE EC50 (RSV A2 antiviral assay in NHBE cells). The note with it: read-out: RSV NHBE EC50. The protocol: Normal human bronchial epithelial (NHBE) cells were purchased from Lonza (Walkersville, MD, Cat #CC-2540) and cultured in Bronchial Epithelial Growth Media (BEGM) (Lonza, Walkersville, MD, Cat #CC-3170). The cells were passaged 1-2 times per week to maintain <80% confluency. The NHBE cells were discarded after 6 passages in culture.
To conduct the RSV A2 antiviral assay, NHBE cells were plated in 96-well plates at a density of 7,500 cells per well in BEGM and allowed to attach overnight at 37° C. Following attachment, 100 μL of cell culture media was removed and 3-fold serially diluted compound was added using a Hewlett-Packard D300 Digital Dispenser. The final concentration of DMSO was normalized to 0.05%. Following compound addition, the NHBE cells were infected by the addition of 100 μL of RSV A2 at a titer of 1×10^4.5 tissue culture infectious doses/mL in BEGM and then incubated at 37° C. for 4 days. The NHBE cells were then allowed to equilibrate to 25° C. and cell viability was determined by removing 100 μL of culture medium and adding 100 μL of Cell-Titer Glo viability reagent. The mixtures were incubated for 10 minutes at 25° C., and the luminescence signal was quantified on an Envision luminescence plate reader.

The next assay concerns HRV16. In words: HRV16 HeLa EC50 (cytopathic effect in H1-HeLa cells). The protocol: H1-HeLa cells, cultured in complete DMEM medium containing 10% heat-inactivated FBS and 1% Penicillin/Streptomycin, were seeded in 96 well plates at 3000 cells/well one day prior to compound dosing and infection. The antiviral activity of each compound was measured in triplicate. Compounds were added directly to the cell cultures in serial 3-fold dilutions using the HP300 digital dispenser (Hewlett Packard, Palo Alto, CA) immediately prior to infection. The plates were transferred to BSL-2 containment and the appropriate dilution of virus stock, previously determined by titration and prepared in cell culture media, was added to test plates containing cells and serially diluted compounds. Each plate included 6 wells of infected untreated cells and 6 wells of uninfected cells that served as 0% and 100% virus inhibition control, respectively. Following the infection, test plates were incubated for 96 h in a tissue culture incubator set to 33° C./5% CO2. Following incubation, the H1-HeLa cells were removed from incubation and allowed to equilibrate to 25° C. Cell viability was determined by removing 100 μL of culture medium and adding 100 μL of Cell-Titer Glo viability reagent. The mixtures were incubated on a shaker for 10 minutes at 25° C., and the luminescence signal was quantified on an Envision luminescence plate reader.

The test system of another assay is RSV strain A2. In words: microbe, parasite or virus in culture. The conditions noted are these: read-out: RSV HEp-2 EC50. The protocol: Antiviral activity against RSV is determined using an infectious cytopathic cell protection assay in HEp-2 cells. In this assay, compounds inhibiting viral infection and/or replication produce a cytoprotective effect against the virus-induced cell killing that can be quantified using a cell viability reagent. The techniques used here are novel adaptations of methods described in published literature (Chapman et al., Antimicrob Agents Chemother. 2007, 51(9):3346-53.).
HEp-2 cells are obtained from ATCC (Manassas, VI) and maintained in MEM media supplemented with 10% fetal bovine serum and penicillin/streptomycin. Cells are passaged twice a week and kept at subconfluent stage. Commercial stock of RSV strain A2 (Advanced Biotechnologies, Columbia, MD) is titered before compound testing to determine the appropriate dilution of the virus stock that generates desirable cytopathic effect in HEp-2 cells.
For antiviral tests, HEp-2 cells are grown in large cell culture flasks to near confluency but not fully so. The compounds to be tested are prediluted in DMSO in 384-well compound dilution plates, either in an 8 or 40 sample per plate standardized dose response format. 3-fold serial dilution increments of each test compound are prepared in the plates and test samples are transferred via acoustic transfer apparatus (Echo, Labcyte) at 100 nL per well into cell culture assay 384-well plates. Each compound dilution is transferred in single or quadruplicate samples into dry assay plates, which are stored until assay is ready to go. The positive and negative controls are laid out in opposite on ends of the plate in vertical blocks (1 column).
Subsequently, an infectious mixture is prepared using an appropriate dilution of virus stock previously determined by titration with cells at a density of 50,000/mL and 20 µL/well is added to test plates w/compounds via automation (uFlow, Biotek). Each plate includes negative and positive controls (16 replicates each) to create 0% and 100% virus inhibition standards, respectively. Following the infection with RSV, testing plates are incubated for 4 days in a 37° C. cell culture incubator. After the incubation, a cell viability reagent, Cell TiterGlo (Promega, Madison, WI) is added to the assay plates, which are incubated briefly, and a luminescent readout is measured (Envision, Perkin Elmer) in all the assay plates. The RSV-induced cytopathic effect, percentage inhibition, is determined from the levels of remaining cell viability. […] Various potent anti-RSV tool compounds are used as positive controls for antiviral activity.

[1] abbreviates: Table 3, NHBE cells, RSV A2, 4 days.
Setting [2] is: Table 3, H1-HeLa cells, 96 h, read-out: HRV16 HeLa EC50.
Where [3] appears, read: Table 3, HEp-2 cells, RSV A2, 4 days.
The mark [4] stands for this setting: human respiratory syncytial virus, NHBE, 96 h, Table 3, NHBE cells, RSV A2, 4 days.
Where [5] appears, read: 96 h, Table 3, H1-HeLa cells, 96 h, read-out: HRV16 HeLa EC50.
[6] abbreviates: human respiratory syncytial virus, HEp-2, 96 h, Table 3, HEp-2 cells, RSV A2, 4 days.
Setting [7] is: human respiratory syncytial virus, NHBE, Table 5 comparative activity, 2',3'-OH vs -OC(O)iPr.
[8] abbreviates: HeLa, Table 5 comparative activity, 2',3'-OH vs -OC(O)iPr, read-out: HRV16 HeLa EC50.
The mark [9] stands for this setting: human respiratory syncytial virus, HEp-2, Table 5 comparative activity, 2',3'-OH vs -OC(O)iPr.

Take `CC(C)C(=O)OC1C(c2ccc3c(N)ncnn23)OC(C#N)(COP(=O)(NC(C)C(=O)OC2CCN(C)C2)Oc2ccccc2)C1OC(=O)C(C)C` (single isomer, unassigned) [Example 229]: the concentration for a half-maximal effect (EC50) with RSV A2 (setting [1]) came to 0.023 µM; in the assay with HRV16 (setting [2]), 0.676 µM; in the assay on RSV strain A2 (setting [3]), 0.016 µM.
For `CC(C)C(=O)OC1C(c2ccc3c(N)ncnn23)OC(C#N)(COP(=O)(NC(C)C(=O)OC2CCN(C)C2)Oc2ccccc2)C1OC(=O)C(C)C` (single isomer, unassigned) [Example 230] the same measures were 0.047 µM, 0.864 µM and 0.102 µM.
On to `CC(C)C(=O)O[C@H]1[C@H](c2ccc3c(N)ncnn23)O[C@](C#N)(COP(=O)(N[C@@H](C)C(=O)O[C@H]2CCOC2)Oc2ccccc2)[C@H]1OC(=O)C(C)C` (single isomer, unassigned) [Example 240], for which the EC50 is 0.024 µM with RSV A2 (setting [4]), 0.125 µM in the assay on HRV16 (setting [5]) and 0.02 µM in the assay on RSV strain A2 (setting [6]).
As to `CC(C)C(=O)O[C@H]1[C@H](c2ccc3c(N)ncnn23)O[C@](C#N)(COP(=O)(N[C@@H](C)C(=O)O[C@H]2CCOC2)Oc2ccccc2)[C@H]1OC(=O)C(C)C` (single isomer, unassigned) [Example 241], the figures for the EC50 in the assay with RSV A2 (setting [1]), in the assay on HRV16 (setting [2]) and in the assay on RSV strain A2 (setting [3]) were 0.013 µM, 0.131 µM and 0.025 µM, respectively.
As for `C[C@H](NP(=O)(OC[C@@]1(C#N)O[C@@H](c2ccc3c(N)ncnn23)[C@H](O)[C@@H]1O)Oc1ccccc1)C(=O)O[C@H]1CCN(C)C1` (stereo partly drawn) [Example 15, (S)-1-methylpyrrolidin-3-yl ((((2R,3S,4R,5S)-5-(4-aminopyrrolo[2,1-f][1,2,4]triazin-7-yl)-2-cyano-3,4-dihydroxytetrahydrofuran-2-yl)methoxy)(phenoxy)phosphoryl)-L-alaninate], the half-maximal effective concentration (EC50) with RSV A2 (setting [7]) is 3.25 µM; in the assay with HRV16 (setting [8]) it was 11.4 µM; in the assay on RSV strain A2 (setting [9]) it was 4.33 µM.
Consider `C[C@H](NP(=O)(OC[C@@]1(C#N)O[C@@H](c2ccc3c(N)ncnn23)[C@H](O)[C@@H]1O)Oc1ccccc1)C(=O)OC1CCN(C)CC1` (some centres unmarked) [Example 19], for which the 50% effective concentration (EC50) in the assay on RSV A2 (setting [7]) was over 5 µM; in the assay on HRV16 (HeLa, read-out: HRV16 HeLa EC50, Table 5 comparative activity, 2',3'-OH vs -OC(O)iPr), at least 50 µM; in the assay on RSV strain A2 (setting [9]) it was 4.19 µM.
As for `C[C@H](NP(=O)(OC[C@@]1(C#N)O[C@@H](c2ccc3c(N)ncnn23)[C@H](O)[C@@H]1O)Oc1ccccc1)C(=O)OC1COC1` (stereo partly drawn) [Example 44, oxetan-3-yl ((((2R,3S,4R,5S)-5-(4-aminopyrrolo[2,1-f][1,2,4]triazin-7-yl)-2-cyano-3,4-dihydroxytetrahydrofuran-2-yl)methoxy)(phenoxy)phosphoryl)-L-alaninate], the 50% effective concentration (EC50) came out at 1.8 µM in the assay on RSV A2 (setting [7]), 4.26 µM in the assay with HRV16 (setting [8]) and 0.997 µM with RSV strain A2 (setting [9]).
Turning to `CC(C)C(=O)O[C@H]1[C@H](c2ccc3c(N)ncnn23)O[C@](C#N)(COP(=O)(N[C@@H](C)C(=O)OC2CCN(C)CC2)Oc2ccccc2)[C@H]1OC(=O)C(C)C` (stereo partly drawn) [Example 162, (2R,3S,4S,5S)-5-(4-aminopyrrolo[2,1-f][1,2,4]triazin-7-yl)-2-cyano-2-((((((S)-1-((1-methylpiperidin-4-yl)oxy)-1-oxopropan-2-yl)amino)(phenoxy)phosphoryl)oxy)methyl)tetrahydrofuran-3,4-diyl bis(2-methylpropanoate)], the half-maximal effective concentration (EC50) came to 0.028 µM with RSV A2 (setting [4]); 0.028 µM in the assay with RSV A2 (setting [7]); 1.62 µM with HRV16 (setting [5]); 1.62 µM in the assay on HRV16 (setting [8]); 0.179 µM with RSV strain A2 (setting [6]); 0.179 µM with RSV strain A2 (setting [9]).
In the case of `COC(=O)[C@H](C)N[P@](=O)(OC[C@@]1(C#N)O[C@@H](c2ccc3c(NC(=O)C4CCN(C)CC4)ncnn23)[C@H](OC(=O)C2CCN(C)CC2)[C@@H]1OC(=O)C1CCN(C)CC1)Oc1ccccc1` [Example 220, (2R,3S,4S,5S)-2-cyano-2-((((S)-(((S)-1-methoxy-1-oxopropan-2-yl)amino)(phenoxy)phosphoryl)oxy)methyl)-5-(4-(1-methylpiperidine-4-carboxamido)pyrrolo[2,1-f][1,2,4]triazin-7-yl)tetrahydrofuran-3,4-diyl bis(1-methylpiperidine-4-carboxylate)], the concentration giving a half-maximal response (EC50) came to 4.86 µM in the assay with RSV A2 (setting [4]), 13.5 µM in the assay with HRV16 (setting [5]) and 0.167 µM in the assay on RSV strain A2 (setting [6]).
Take `CC(C)[C@H](N)C(=O)O[C@H]1[C@H](c2ccc3c(N)ncnn23)O[C@](C#N)(COP(=O)(N[C@@H](C)C(=O)OC2CCOCC2)Oc2ccccc2)[C@H]1OC(=O)[C@@H](N)C(C)C` (stereo partly drawn) [Example 221, (2R,3S,4S,5S)-5-(4-aminopyrrolo[2,1-f][1,2,4]triazin-7-yl)-2-cyano-2-((((((S)-1-oxo-1-((tetrahydro-2H-pyran-4-yl)oxy)propan-2-yl)amino)(phenoxy)phosphoryl)oxy)methyl)tetrahydrofuran-3,4-diyl (2S,2'S)-bis(2-amino-3-methylbutanoate)]: the EC50 in the assay on RSV A2 (setting [1]) turned out to be 1.17 µM; with HRV16 (setting [2]), 8.99 µM; in the assay with RSV strain A2 (setting [3]), 0.66 µM.
With `COCCCOC(=O)[C@H](C)NP(=O)(OC[C@@]1(C#N)O[C@@H](c2ccc3c(N)ncnn23)[C@H](OC(=O)C(C)C)[C@@H]1OC(=O)C(C)C)Oc1ccccc1` (stereo partly drawn) [Example 222, (2R,3S,4S,5S)-5-(4-Aminopyrrolo[2,1-f][1,2,4]triazin-7-yl)-2-cyano-2-((((((S)-1-(3-methoxypropoxy)-1-oxopropan-2-yl)amino)(phenoxy)phosphoryl)oxy)methyl) tetrahydrofuran-3,4-diyl bis(2-methylpropanoate)], the EC50 in the assay on RSV A2 (setting [4]) turned out to be 0.025 µM; in the assay on HRV16 (setting [5]) it was 0.146 µM; in the assay with RSV strain A2 (setting [6]), 0.027 µM.
Turning to `COC(=O)[C@H](C)NP(=O)(OC[C@@]1(C#N)O[C@@H](c2ccc3c(N)ncnn23)[C@H](OC(=O)C(C)C)[C@@H]1OC(=O)C(C)C)Oc1ccc(C[C@H](N)C(=O)OC(C)C)cc1` (stereo partly drawn) [Example 251, (2R,3S,4S,5S)-2-((((4-((S)-2-amino-3-isopropoxy-3-oxopropyl)phenoxy)(((S)-1-methoxy-1-oxopropan-2-yl)amino)phosphoryl)oxy)methyl)-5-(4-aminopyrrolo[2,1-f][1,2,4]triazin-7-yl)-2-cyanotetrahydrofuran-3,4-diyl bis(2-methylpropanoate)], the EC50 in the assay on RSV A2 (setting [4]) came out at 0.037 µM; in the assay with RSV strain A2 (setting [6]), 0.186 µM.

For the origin of these results see patent US12264173B2 (GILEAD SCIENCES, INC., priority 2020, dated 2025).
